Source: patent publication US5783556A, “Formulated insulin-containing composition” (Genentech, Inc., priority 1996, dated 1998)

Tests used:
patients with IDDM [1] = test: Safety assessments in the IDDM clinical study (hypoglycemia, laboratory profiles, body weight); assay type: in vivo, human
Experimental: The primary safety laboratory evaluations were serum biochemical and thyroid profiles, CBC, urinalysis, 24-hour urinary albumin excretion rate and creatinine clearance. Hypoglycemia was defined by a BG level equal to or lower than 50 mg/dL with or without symptomatology. This definition of hypoglycemia was used for purposes of statistical analysis.
Patients with at least two weeks of post randomization data were included in the analysis. […] The data are summarized by mean±SE for each group. Comparisons between the two groups were performed using the Wilcoxon rank sum test for continuous variables and Fisher's exact test for discrete data. All tests were two-tailed and a p-value less than or equal to 0.05 was considered statistically significant.

[2] = Plasma total and free IGF-I levels in the IDDM clinical study; assay type: in vivo, human; settings: 2-4 hours after rhIGF-I injection
Description: At the end of the lead-in period the patients were randomized to administer either rhIGF-I or placebo as an additional injection immediately before their morning insulin injections. Patients were allocated using an adaptive randomization procedure that stratified based on Tanner stage and the glycosylated hemoglobin value on day -28 of the lead-in period. A seven-day window period was allowed between day -1 of the lead-in period and day 1 of the treatment period. The subjects were admitted to the hospital the afternoon preceding day 1 of treatment and received their usual insulin dose and diet. On day 1, an IV cannula was inserted into the distal forearm or antecubital fossa. A single dose of rhIGF-I (80 μg/kg) or placebo was administered SC, followed by a SC insulin injection and breakfast. The dosing of IGF-I in the morning was for safety reasons. On day 1, the a.m. regular insulin dose was reduced by 1/3in both groups as a precaution against the development of hypoglycemia. Blood samples were obtained for future assay every 15 minutes for the next 3 hours. […]
Plasma levels of GH, IGF-I, free IGF-I, IGF-II, IGFBP-1, IGFBP-2, and IGFBP-3 were measured. […] Total plasma IGF-I concentrations were determined by radioimmunoassay (RIA) following acid-ethanol extraction as described by Lieberman et al., supra. […]

[3] = Acidic pH reversed-phase HPLC of centrifuged and filtered insulin, IGF-I and insulin/IGF-I mixtures; assay type: physicochemical
Experimental: Human insulin was gently inverted several times to mix the suspension. Approximately 1 mL of sample was withdrawn into an insulin syringe. The insulin was discharged into a centrifuge tube, then centrifuged at 3000 r.p.m. for 10 minutes. The centrifuge step was designed to remove human insulin suspension from solution. After centrifugation, the insulin sample was filtered through a 0.22 μm filter to further remove human insulin suspension. After filtration the solution was analyzed by using the acidic pH reversed-phase HPLC method described below: […]
solvent A: 0.1% trifluoroacetic acid solvent B: 0.1% trifluoroacetic acid in acetonitrile […]
column temperature: 50° C. […]
injection volume: 25 μg/injection
This solution was analyzed by the above HPLC method with no sample preparation step.
IGF-I was diluted to 1 mg/mL using IGF-I placebo. The diluted sample was analyzed by the above HPLC method.
Human insulin was mixed with IGF-I in an insulin syringe using the mixing method described above. Immediately after mixing, the mixture was injected into a centrifuge tube, then gently vortexed for 1-2 seconds. After vortexing, the mixture was centrifuged at 3000 r.p.m. for 10 minutes, then filtered through a 0.22 μm filter to remove human insulin suspension. The filtered sample was then analyzed by the acidic pH reversed-phase HPLC method described above.

patients with IDDM [4] = test: Four-week randomized placebo-controlled double-blind study of rhIGF-I plus insulin in IDDM: glycemic control and insulin usage; assay type: in vivo, human
Description: Forty-three patients (22 males and 21 females) with IDDM, ages 8-17 years, were recruited at three university-based diabetes clinics. The eligibility criteria were as follows:
The study design included a 4-week lead-in period, a 4-week treatment period, and a 2-week wash-out period (FIG. 13). Throughout the study the patients continued to receive two injections of regular and NPH insulin daily. At study entry the patients were provided with detailed instructions on home blood glucose (BG) monitoring technique. They were instructed to test BG before breakfast, lunch, dinner, and the evening snack as well as any times of symptomatic hypoglycemia. The glucose values were automatically stored in the meter (One Touch II--Lifescan Inc., Milpitas, Calif.) and electronically transferred to a personal computer at the study site during each clinic visit. During the lead-in period the patients were counseled weekly on general diabetes care and dietary management (day -28 and -14 at the clinic, day -21 and -7 over the phone). During this period the patients were provided with specific goals of glycemic control and were instructed to call the study sites as often as needed for assistance with insulin adjustment.
At the end of the lead-in period the patients were randomized to administer either rhIGF-I or placebo as an additional injection immediately before their morning insulin injections. Patients were allocated using an adaptive randomization procedure that stratified based on Tanner stage and the glycosylated hemoglobin value on day -28 of the lead-in period. A seven-day window period was allowed between day -1 of the lead-in period and day 1 of the treatment period. The subjects were admitted to the hospital the afternoon preceding day 1 of treatment and received their usual insulin dose and diet. On day 1, an IV cannula was inserted into the distal forearm or antecubital fossa. A single dose of rhIGF-I (80 μg/kg) or placebo was administered SC, followed by a SC insulin injection and breakfast. The dosing of IGF-I in the morning was for safety reasons. On day 1, the a.m. regular insulin dose was reduced by 1/3in both groups as a precaution against the development of hypoglycemia. Blood samples were obtained for future assay every 15 minutes for the next 3 hours. The patients were encouraged to be active and exercise after the initial 3-hour sampling period. Discharge from the hospital occurred on day 3 or 4 of treatment. The patients were then contacted by phone on day 5 and seen as outpatients on days 7, 14, 21, and 28 of treatment and 14 days after the cessation of dosing. The patients were instructed on dietary and diabetes management at each follow-up appointment.
For the entire four-week treatment period, the rhIGF-I and placebo doses remained constant (80 μg/kg SC q a.m.). However, the insulin doses were adjusted in an attempt to achieve the following BG targets: fasting blood glucose (FBG) 80-120 mg/dl (4.4-6.7 mmol/L) for age greater than 12 years and 80-140 mg/dL (4.4-7.8 mmol/L) for age lower than 12 years; 80-180 mg/dL (4.4-10.0 mmol/L) at any other time. A physical exam was performed on day -28 of the lead-in period, on days 1, 7, 21 and 28 of the treatment period, and on day 14 of the wash-out period. The treatment period was followed by a two-week wash-out period, during which the patients remained on insulin therapy only and dose adjustments continued as necessary to meet the glycemic goals.
The primary indices of glycemic control were: 1) HbA1 was measured at day -28 of the lead-in, as well as at days 1 and 28 of the treatment; 2) the average of the four daily home glucose monitoring values over the last ten days of the lead-in period was compared to the last ten days of treatment. The glycosylated hemoglobin was assayed by affinity chromatography (SmithKline Beecham Clinical Laboratories). The reference range was 4.4-6.1%.
Patients with at least two weeks of post randomization data were included in the analysis. […]

[5] = Mixing one volume of human insulin with an equal volume of IGF-I: pH, color and appearance; assay type: physicochemical
Description: One volume of human insulin was mixed with an equal volume of IGF-I using the following procedure:
1) Draw air into syringe equal to the amount of human insulin for mixing. Insert the needle into the human insulin bottle and inject air. Withdraw the needle.
3) Turn the bottle and syringe upside down.
4) Make sure the tip of the needle is in the IGF-I, withdraw the correct dose of IGF-I into the syringe.
5) Before removing the needle from the bottle, check the syringe for air bubbles which reduce the amount of IGF-I in it. If bubbles are present, hold the syringe straight up and tap its sides until the bubbles float to the top. Push them out with the plunger and withdraw the correct dose.
6) Remove the needle from the bottle of IGF-I and insert it into the bottle of human insulin. Turn the bottle and syringe upside down. Hold the bottle and syringe firmly in one hand and shake gently (no shaking for regular human insulin). Make sure the tip of the needle is in the insulin, withdraw the dose of human insulin.

STZ diabetic rats = test: Plasma glucose after SC injection in STZ diabetic rats (Studies 1-3); assay type: in vivo, rat
Experimental: Forty 7-8 week-old male SD rats were received from Charles River Laboratories and one day later injected with STZ 75 mg/kg IP. Five days later rats were bled via a tail vein, serum was obtained, and glucose concentration measured. All animals with blood glucose <200 mg/dL were not considered diabetic and were removed from the study. […] The right jugular vein was then isolated through a small SC incision and cannulated using a 0.02 inch×0.037 inch beveled silicon rubber-tipped cannula. Cannulas were flushed and checked for patency using heparin (10 U/mL) before closing wounds using 4-0 silk suture thread. Cannulas were "heparin locked" using ~50 μl heparin (100 U/mL) just before the animals were placed on a heated pad for recovery. Rats were placed in their vivarium cage when ambulatory.
The cannulas were flushed daily with fresh heparin/saline to maintain patency. Two days after cannulation, Study 1 (see below) was performed and two days later, Study 2. […]
Plasma glucose concentrations were measured using a Chem 1A serum chemistry analyzer (Miles Laboratories, Tarrytown, N.Y.). Insulin in plasma was measured by rat-specific radioimmunoassay (RIA) (Linco Research Inc., St. Charles, Mo.). Plasma IGF-I was measured by RIA after acid-ethanol extraction of the samples. […]

[6] = last 10 days of treatment period, Mean ± SEM

Substance: IGF-I: rhIGF-I (Genentech): 10 mg/mL IGF-I, 5.84 mg/mL NaCl, 9.0 mg/mL benzyl alcohol, 2.0 mg/mL polysorbate 20, 50 mM sodium acetate, pH 5.4
- body weight (patients with IDDM [1]; day 28 of treatment): 55 ± 17 kg
- biochemical, lipid, and thyroid profiles (patients with IDDM [1]; throughout the duration of the study): remained within normal limits
- median amount of hypoglycemic episodes (patients with IDDM [1]; treatment period, BG equal to or lower than 50 mg/dL): 6
- free IGF-I level compared with corresponding Tanner stage placebo group [2]: higher
- IGF-I intact and unoxidized ([3]; IGF-I formulation alone, FIG. 1C): approximately 99%
- IGF-I precipitated ([3]; immediately after mixing with HUMULIN R): ~25%
- average number of NPH units used per kg body weight (patients with IDDM [4]; during treatment): 0.65±0.14 units used per kg body weight
- Mean Plasma Glucose Concentrations, Pre-bedtime, Treatment (patients with IDDM [4]; [6]): 171 ± 51 mg/dL
- Mean Plasma Glucose Concentrations, Pre-breakfast, Treatment (patients with IDDM [4]; [6]): 176 ± 39 mg/dL
- Mean Plasma Glucose Concentrations, Pre-dinner, Treatment (patients with IDDM [4]; [6]): 199 ± 47 mg/dL
- Mean Plasma Glucose Concentrations, Pre-lunch, Treatment (patients with IDDM [4]; [6]): 142 ± 56 mg/dL
- mean reduction of HbA1 during the treatment period (patients with IDDM [4]; rhIGF-I 80 μg/kg SC q a.m. plus regular and NPH insulin, 4 weeks): 1.8±1.25%
- average amount of regular insulin used (patients with IDDM [4]; treatment phase): 0.20±0.10 insulin units used daily per kg of body weight
- Color and Appearance Before Mixing [5]: colorless, clear
- pH Before Mixing [5]: 5.4
- blood glucose levels after 6 hours (STZ diabetic rats; Study 1, 6 hours after SC injection): returned to basal values
- blood glucose levels (STZ diabetic rats; Study 1, twenty minutes post-injection, SC, rhIGF-I 500 μg and/or NPH insulin 5U): 218.3±38.1 mg %
